Earlier results in US20050043536A1, “Sulfonamides” (priority 2001, published 2005).

Tested on: rat-isolated aorta

CC(C)[C@H](NC(=O)[C@@H]1CSSC[C@H](NC(=O)[C@H](CC(=O)O)NC(=O)[C@@H]2CCCN2C(=O)[C@@H](NC(=O)[C@@H](N)CCC(=O)O)[C@@H](C)O)C(=O)N[C@@H](Cc2ccccc2)C(=O)N[C@@H](Cc2c[nH]c3ccccc23)C(=O)N[C@@H](CCCCN)C(=O)N[C@@H](Cc2ccc(O)cc2)C(=O)N1)C(=O)O [Human Urotensin-II]
contractile activity: the most potent contractile agonist identified to date
